2 compounds from patent publication US10745416B2, “Macrocyclic compounds for treating disease” (Turning Point Therapeutics, Inc., priority 2017, dated 2020) can be followed below.

What all share (assay): Biochemical kinase assay (Reaction Biology, 33P ATP)
Common to all, as to conditions: 10 μM ATP

One assay has as its target T1, LYN (Homo sapiens, UniProt P07948).
T1 construct: purchased Reaction Biology Corporation (assay run at the CRO)
The protocol: (§1) The biochemical kinase assay was performed at Reaction Biology Corporation (www.reactionbiology.com, Malvern, Pa.) following the procedures described in the reference (Anastassiadis T, et al Nat Biotechnol. 2011, 29, 1039). Specific kinase/substrate pairs along with required cofactors were prepared in reaction buffer; 20 mM Hepes pH 7.5, 10 mM MgCl2, 1 mM EGTA, 0.02% Brij35, 0.02 mg/ml BSA, 0.1 mM Na3VO4, 2 mM DTIT, 1% DMSO. Compounds were delivered into the reaction, followed ˜20 minutes later by addition of a mixture of ATP (Sigma, St. Louis Mo.) and ^33P ATP (Perkin Elmer, Waltham Mass.) to a final concentration of 10 μM. Reactions were carried out at room temperature for 120 min, followed by spotting of the reactions onto P81 ion exchange filter paper (Whatman Inc., Piscataway, N.J.). Unbound phosphate was removed by extensive washing of filters in 0.75% phosphoric acid. […] IC50 values and curve fits were obtained using Prism (GraphPad Software).

The target of another assay is T2, RET (Homo sapiens, UniProt P07949).
T2 construct: purchased Reaction Biology Corporation (assay run at the CRO)
T2 sequence (P07949 29-1114): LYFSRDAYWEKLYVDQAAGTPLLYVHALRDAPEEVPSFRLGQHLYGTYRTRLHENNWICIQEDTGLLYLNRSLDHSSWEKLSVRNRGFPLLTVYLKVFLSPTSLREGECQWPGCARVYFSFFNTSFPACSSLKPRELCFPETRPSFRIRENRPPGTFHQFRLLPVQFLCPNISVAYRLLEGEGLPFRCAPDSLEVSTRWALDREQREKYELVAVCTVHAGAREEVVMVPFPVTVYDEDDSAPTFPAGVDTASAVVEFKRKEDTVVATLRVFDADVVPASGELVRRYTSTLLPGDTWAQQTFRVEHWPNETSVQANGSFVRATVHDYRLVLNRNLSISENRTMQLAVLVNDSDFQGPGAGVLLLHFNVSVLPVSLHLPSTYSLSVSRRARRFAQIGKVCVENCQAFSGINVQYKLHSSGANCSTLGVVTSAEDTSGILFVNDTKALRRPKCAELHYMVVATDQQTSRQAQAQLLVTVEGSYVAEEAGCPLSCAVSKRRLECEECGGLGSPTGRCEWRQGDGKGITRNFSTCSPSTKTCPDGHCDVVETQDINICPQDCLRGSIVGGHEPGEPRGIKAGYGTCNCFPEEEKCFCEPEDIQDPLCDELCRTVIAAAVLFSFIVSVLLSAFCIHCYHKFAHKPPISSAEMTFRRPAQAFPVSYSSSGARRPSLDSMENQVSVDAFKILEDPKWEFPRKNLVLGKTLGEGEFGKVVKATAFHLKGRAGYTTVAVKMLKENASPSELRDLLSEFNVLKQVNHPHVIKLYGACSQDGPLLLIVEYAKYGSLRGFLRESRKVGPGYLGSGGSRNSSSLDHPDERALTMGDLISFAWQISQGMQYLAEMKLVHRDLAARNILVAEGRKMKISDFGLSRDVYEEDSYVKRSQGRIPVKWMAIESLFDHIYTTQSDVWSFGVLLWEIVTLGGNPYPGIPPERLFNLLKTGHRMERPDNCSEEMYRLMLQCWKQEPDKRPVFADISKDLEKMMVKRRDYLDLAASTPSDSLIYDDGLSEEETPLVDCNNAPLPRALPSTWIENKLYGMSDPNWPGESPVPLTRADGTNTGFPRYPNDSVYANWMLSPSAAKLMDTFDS
The protocol:
as §1

In the next assay the target is T3, RET (V778I) (Homo sapiens, UniProt P07949, V778I).
T3 construct: purchased Reaction Biology Corporation (assay run at the CRO)
T3 sequence (P07949 29-1114 V778I): as the sequence (P07949 29-1114) above, with V750I counted along it
The protocol: as §1

In another assay the target is T4, RET (L790F) (Homo sapiens, UniProt P07949, L790F).
T4 construct: purchased Reaction Biology Corporation (assay run at the CRO)
T4 sequence (P07949 29-1114 L790F): as the sequence (P07949 29-1114) above, with L762F counted along it
The procedure:
as §1

A further assay addresses T5, RET (G691S) (Homo sapiens, UniProt P07949, G691S).
T5 construct: purchased Reaction Biology Corporation (assay run at the CRO)
The protocol: as §1

The next assay addresses T6, HCK (Homo sapiens, UniProt P08631).
T6 construct: purchased Reaction Biology Corporation (assay run at the CRO)
The procedure: as §1

In a further assay the target is T7, YES (Homo sapiens, UniProt P07947).
T7 construct: purchased Reaction Biology Corporation (assay run at the CRO)
T7 sequence (P07947 whole entry): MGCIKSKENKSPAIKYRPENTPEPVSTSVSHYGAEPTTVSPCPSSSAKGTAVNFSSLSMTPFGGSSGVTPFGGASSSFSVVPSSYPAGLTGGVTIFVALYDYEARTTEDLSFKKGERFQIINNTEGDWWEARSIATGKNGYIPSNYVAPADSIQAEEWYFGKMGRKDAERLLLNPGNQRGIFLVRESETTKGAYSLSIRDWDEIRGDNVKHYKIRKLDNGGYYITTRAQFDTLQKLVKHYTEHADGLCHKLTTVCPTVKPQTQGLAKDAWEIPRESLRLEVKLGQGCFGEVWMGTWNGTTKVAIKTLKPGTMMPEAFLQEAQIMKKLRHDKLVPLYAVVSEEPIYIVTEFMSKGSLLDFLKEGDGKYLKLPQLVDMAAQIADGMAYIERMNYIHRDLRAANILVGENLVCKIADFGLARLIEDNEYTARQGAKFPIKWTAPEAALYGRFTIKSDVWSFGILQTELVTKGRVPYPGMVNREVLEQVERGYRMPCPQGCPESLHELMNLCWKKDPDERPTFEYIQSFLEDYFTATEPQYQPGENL
The protocol:
as §1

For the next assay, the target named is T8, RET (V804L) (Homo sapiens, UniProt P07949, V804L).
T8 construct: purchased Reaction Biology Corporation (assay run at the CRO)
T8 sequence (P07949 29-1114 V804L): as the sequence (P07949 29-1114) above, with V776L counted along it
The procedure: as §1

The target of a further assay is T9, RET-CCDC6 (PTC1) (Homo sapiens, UniProt P07949).
T9 construct: fusion transcripts composed of the 3′ end of RET kinase domain and the 5′ end of separate partner genes; CCDC6 N-terminal part (fusion partner); purchased Reaction Biology Corporation (assay run at the CRO); the other entry of the earlier key: CCDC6 (Q16204, Coiled-coil domain-containing protein 6)
T9 sequence (P07949 with tags, fused parts or gaps): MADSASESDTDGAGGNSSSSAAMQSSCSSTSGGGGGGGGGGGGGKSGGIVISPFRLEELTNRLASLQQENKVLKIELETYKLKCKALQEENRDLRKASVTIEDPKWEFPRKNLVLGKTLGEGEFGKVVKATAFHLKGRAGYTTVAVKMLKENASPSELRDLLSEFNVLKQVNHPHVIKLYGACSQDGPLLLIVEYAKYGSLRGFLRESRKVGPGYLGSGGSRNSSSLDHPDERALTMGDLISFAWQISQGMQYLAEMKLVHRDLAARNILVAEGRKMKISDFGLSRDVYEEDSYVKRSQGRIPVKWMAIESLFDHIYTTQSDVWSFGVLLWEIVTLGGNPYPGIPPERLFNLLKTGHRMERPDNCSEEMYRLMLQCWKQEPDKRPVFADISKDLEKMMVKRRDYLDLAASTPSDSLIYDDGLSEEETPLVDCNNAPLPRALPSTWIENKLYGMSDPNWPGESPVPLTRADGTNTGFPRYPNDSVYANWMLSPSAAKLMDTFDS
The procedure: as §1

The target in the next assay is T10, RET (V804M) (Homo sapiens, UniProt P07949, V804M).
T10 construct: purchased Reaction Biology Corporation (assay run at the CRO)
T10 sequence (P07949 29-1114 V804M): as the sequence (P07949 29-1114) above, with V776M counted along it
The procedure: as §1

In the next assay the target is T11, RET (E762Q) (Homo sapiens, UniProt P07949, E762Q).
T11 construct: purchased Reaction Biology Corporation (assay run at the CRO)
T11 sequence (P07949 29-1114 E762Q): as the sequence (P07949 29-1114) above, with E734Q counted along it
The procedure: as §1

In the next assay the target is T12, RET-NCOA4 (PTC3) (Homo sapiens, UniProt P07949).
T12 construct: fusion transcripts composed of the 3′ end of RET kinase domain and the 5′ end of separate partner genes; NCOA4 N-terminal part (fusion partner); purchased Reaction Biology Corporation (assay run at the CRO)
T12 sequence (P07949 with tags, fused parts or gaps): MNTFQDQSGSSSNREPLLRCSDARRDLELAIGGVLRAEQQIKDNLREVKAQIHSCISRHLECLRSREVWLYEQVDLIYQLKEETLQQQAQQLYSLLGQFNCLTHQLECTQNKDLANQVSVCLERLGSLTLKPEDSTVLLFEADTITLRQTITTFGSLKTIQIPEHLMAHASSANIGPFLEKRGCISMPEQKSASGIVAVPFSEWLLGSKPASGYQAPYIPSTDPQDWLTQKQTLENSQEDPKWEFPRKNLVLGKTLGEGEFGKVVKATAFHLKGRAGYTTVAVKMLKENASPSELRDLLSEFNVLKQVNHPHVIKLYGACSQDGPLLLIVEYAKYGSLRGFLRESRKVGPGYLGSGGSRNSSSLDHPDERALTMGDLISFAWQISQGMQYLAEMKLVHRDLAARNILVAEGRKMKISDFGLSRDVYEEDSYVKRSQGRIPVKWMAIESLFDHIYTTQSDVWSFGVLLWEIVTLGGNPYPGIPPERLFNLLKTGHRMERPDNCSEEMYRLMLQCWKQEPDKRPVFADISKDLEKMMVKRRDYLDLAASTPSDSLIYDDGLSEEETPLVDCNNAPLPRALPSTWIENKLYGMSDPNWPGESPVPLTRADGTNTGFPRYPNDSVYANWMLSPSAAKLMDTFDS
The protocol:
as §1

For a further assay, the target named is T13, RET (S891A) (Homo sapiens, UniProt P07949, S891A).
T13 construct: purchased Reaction Biology Corporation (assay run at the CRO)
T13 sequence (P07949 29-1114 S891A): as the sequence (P07949 29-1114) above, with S863A counted along it
The procedure: as §1

The next assay has as its target T14, RET (S904F) (Homo sapiens, UniProt P07949, S904F).
T14 construct: purchased Reaction Biology Corporation (assay run at the CRO)
The procedure: as §1

SMILES strings stand for the structures.

T1 sequence (P07948 whole entry): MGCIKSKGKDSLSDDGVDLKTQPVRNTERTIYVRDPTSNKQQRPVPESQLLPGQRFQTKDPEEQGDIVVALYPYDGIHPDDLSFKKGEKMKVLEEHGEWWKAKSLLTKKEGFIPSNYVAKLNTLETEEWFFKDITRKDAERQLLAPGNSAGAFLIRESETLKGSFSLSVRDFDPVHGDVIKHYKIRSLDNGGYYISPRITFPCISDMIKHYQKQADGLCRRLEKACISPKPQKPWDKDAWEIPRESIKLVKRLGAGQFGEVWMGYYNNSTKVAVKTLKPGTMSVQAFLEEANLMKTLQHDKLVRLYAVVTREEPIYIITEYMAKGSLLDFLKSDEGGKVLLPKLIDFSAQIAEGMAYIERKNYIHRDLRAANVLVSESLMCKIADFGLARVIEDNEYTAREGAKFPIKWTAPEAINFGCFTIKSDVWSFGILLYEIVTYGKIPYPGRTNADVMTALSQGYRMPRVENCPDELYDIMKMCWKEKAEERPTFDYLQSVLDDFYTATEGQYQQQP
T6 sequence (P08631 whole entry): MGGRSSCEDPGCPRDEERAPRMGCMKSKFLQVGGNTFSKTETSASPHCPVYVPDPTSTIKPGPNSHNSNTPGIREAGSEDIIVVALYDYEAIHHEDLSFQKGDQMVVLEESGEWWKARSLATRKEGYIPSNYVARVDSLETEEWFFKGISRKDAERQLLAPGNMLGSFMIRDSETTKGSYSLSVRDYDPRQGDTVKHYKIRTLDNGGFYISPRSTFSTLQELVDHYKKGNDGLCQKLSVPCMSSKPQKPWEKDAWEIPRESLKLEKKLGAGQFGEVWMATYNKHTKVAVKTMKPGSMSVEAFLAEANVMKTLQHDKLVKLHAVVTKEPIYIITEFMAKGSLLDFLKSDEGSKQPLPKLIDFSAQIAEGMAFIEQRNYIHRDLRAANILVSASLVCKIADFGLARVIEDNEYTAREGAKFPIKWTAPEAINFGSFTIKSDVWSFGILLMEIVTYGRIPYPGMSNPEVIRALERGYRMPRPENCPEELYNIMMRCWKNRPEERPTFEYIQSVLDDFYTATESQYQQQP
T5 sequence (P07949 29-1114 G691S): as the sequence (P07949 29-1114) above, with G663S counted along it
T14 sequence (P07949 29-1114 S904F): as the sequence (P07949 29-1114) above, with S876F counted along it

Consider `C[C@H]1CNC(=O)c2cnn3cc4c(nc23)N(Cc2cc(F)cnc2O1)[C@@H]1CCC[C@@H]1O4` [Compound 5, (3aR,11S,20aS)-7-fluoro-11-methyl-2,3,3a,12,13,20a-hexahydro-1H,5H-17-19-(metheno)cyclopenta[5,6][1,4] oxazino[3,4-i]pyrazolo[4,3-f]pyrido[3,2-l][1,4,8,10]oxatriazacyclotridecin-14(11H)-one], for which the IC50 (in general, the midpoint of a concentration-inhibition curve) against LYN amounted to 2.03 nM; against RET, 1.01 nM; on RET (V778I), 0.233 nM; against RET (L790F), 1.31 nM; against RET (G691S), 0.941 nM; against HCK it was 2.71 nM. For the same compound, the IC50 at YES was found to be 2.64 nM; against RET (V804L), 2350 nM; at RET-CCDC6 (PTC1) it was 1.97 nM; on RET (V804M) it was 18.8 nM; at RET (E762Q), 0.58 nM; against RET-NCOA4 (PTC3) it was 0.691 nM. Further, the IC50 against RET (S891A) is 0.303 nM; against RET (S904F), 0.364 nM.

For `C[C@H]1CNC(=O)c2cnn3cc4c(nc23)N(Cc2cc(F)ccc2O1)[C@@H]1CCC[C@@H]1O4` [Compound 1, (3aR,11S,20aS)-7-fluoro-11-methyl-2,3,3a,12,13,20a-hexahydro-1H,5H-17-19-(metheno)cyclopenta[5,6][1,4] oxazino[3,4-i]pyrazolo[4,3-f][1,4,8,10]benzoxatriacyclotridecin-14(11H)-one], the IC50 is 1.97 nM on LYN; 0.0994 nM on RET; below 0.0508 nM at RET (V778I); 0.12 nM at RET (L790F); 3.01 nM at RET (G691S); 1.95 nM against HCK. Also, the IC50 was determined as 1.72 nM on YES; 10 nM against RET (V804L); 0.0893 nM against RET-CCDC6 (PTC1); 7.86 nM against RET (V804M); 2.07 nM at RET (E762Q); 0.0635 nM on RET-NCOA4 (PTC3). Moreover, the IC50 against RET (S891A) worked out at 0.664 nM; against RET (S904F) it was 0.0621 nM.
